According to patent US20020165208A1, “Compositions and methods relating to hypertension” (priority 2000, published 2002):
Read-outs that look alike come from different tables or passages of the source.

What was measured:
renal vasculature = details: synthetic 20-HETE; cited from earlier work
recombinant Cyp 4a14 = biological target: T1, recombinant Cyp 4a14 (Mus musculus, UniProt O35728); experiment: Substrate oxidation by purified recombinant Cyp 4a14; format: biochemical
T1 construct: A KpnI-XhoI cDNA fragment (1.9 kb) was subcloned into the pBlueBac IV vector; made in house; host or cells: Sf9 insect cells / baculovirus (pBlueBac IV, Invitrogen)
T1 sequence (O35728 5-507): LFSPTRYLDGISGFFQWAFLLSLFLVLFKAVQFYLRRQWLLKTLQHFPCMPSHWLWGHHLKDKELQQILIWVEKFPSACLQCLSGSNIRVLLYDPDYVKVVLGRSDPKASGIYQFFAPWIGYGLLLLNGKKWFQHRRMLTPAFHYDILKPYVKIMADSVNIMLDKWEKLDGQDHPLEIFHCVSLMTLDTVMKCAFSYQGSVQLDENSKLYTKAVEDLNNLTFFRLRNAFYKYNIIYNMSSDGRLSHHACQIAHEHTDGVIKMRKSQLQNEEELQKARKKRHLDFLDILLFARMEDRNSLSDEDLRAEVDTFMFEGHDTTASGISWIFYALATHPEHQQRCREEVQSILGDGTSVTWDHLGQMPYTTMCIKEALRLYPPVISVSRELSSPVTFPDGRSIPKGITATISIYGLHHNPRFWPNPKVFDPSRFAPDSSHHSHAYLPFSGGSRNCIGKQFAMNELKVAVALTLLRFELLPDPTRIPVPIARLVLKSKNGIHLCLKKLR
Procedure: (§1) Kidney microsomes were isolated from treated and nontreated Cyp 4a14 (+/+) and (−/−) mice (21), suspended (1-2 mg of protein/ml) in 0.05 M Tris·Cl (pH 7.4) containing 0.15 M KCl and 10 mM MgCl2, and incubated with [1^14C]AA or lauric acid (100 μM, 5 μCi/μmol each) and NADPH (1 mM) at 35° C. Reaction products were resolved and quantified as described (21). For antibody inhibition, microsomes were incubated (30 min at 22° C.) with rabbit anti-CYP 4A2 or nonimmune serum (0.1-1 mg of protein/ml) before enzymatic analysis. Recombinant Cyp 4a14 (0.1-1 μM) was incubated with [1-^14C]-labeled AA or lauric acid in the presence of purified P450 reductase, cytochrome b5, dilauroylphosphatidylcholine, and NADPH (1 mM), as described (15, 21). Urine collections (8-12 h) were incubated at 35° C. for 2-3 h with -glucoronidase (22) (Sigma) (1 mg/ml) and, after purification, the levels of 19- and 20-HETE were quantified by mass spectroscopy (22).

[1] = Plasma androgen levels (TST and DHT) by RIA in castrated, pellet-implanted mice; details: for concentration at 10 days: male, mouse, in vivo, 5 mg DHT/day, Plasma DHT level, DHT-releasing pellets, ten days after implantation
Cyp 4a12 transcripts = details: DHT-treated castrated Cyp 4a14 (−/−) mice
Procedure: Top frame: Samples of total RNA (5-10 μg each) from the kidneys of control (A), castrated (B), castrated and DHT-treated (C) males or from control (D) and DHT-treated (E) females were fractionated by agar electrophoresis, transferred to nitrocellulose membranes, and hybridized to ^32P-labeled DNA probes (400-500 bp) coding for segments of the 3′-untranslated end of the Cyp 4a10, 4a12, and 4a14 cDNAs. After high-stringency washes, the membranes were exposed to x-ray films for 4, 2, or 21 h for male Cyp 4a10, 4a12, and 4a14, respectively, and 6, 21, or 12 h for female Cyp 4a10, 4a12, and 4a14, respectively. RNA loadings were normalized by using a -actin cDNA probe. […] Bottom frame: Dehydrated paraffin sections from the kidneys of control (A and A′), castrated (B and B′) and DHT-treated castrated male mice (C and C′) were hybridized to [^35S]-labeled riboprobes encoding 3′-end untranslated segments of the Cyp 4a12 cDNA. After washing, RNase A treatment, and dehydration, the sections were dipped in emulsion (IlfordK5; Knutsford, Cheshire, U.K.), exposed for 4-5 days at 4° C., and developed by using D-19 (Kodak). Slides were counterstained with hematoxylin. Photomicrographs were obtained by using either dark-field (3×) (A-C) or bright-field (100×) (A′, B′, and C′) optics.

[2] = test system: Cyp 4a14 (+/+) and (−/−) mice; experiment: Arterial blood pressure of conscious mice by right carotid artery catheter; format: in vivo, mouse; details: for Effect on hypertensive phenotype (blood pressure): castrated Cyp 4a14 (−/−) mice, androgen-releasing pellets
Procedure: The arterial blood pressures of conscious 12- to 14-week-old mice were measured by means of a right carotid artery catheter (300-500 μm OD). After surgery (24-48 h), animals were allowed to become familiar with the environment and, after stabilization, their arterial blood pressures were monitored continuously for at least 30 min by using a pressure transducer. […] For measurements of afferent arteriolar diameter, male kidneys were perfused in vitro with a physiological salt solution supplemented with a mixture of L-amino acids (23), and the juxtamedullary vasculature was monitored continuously by videomicroscopy, as described (23). The relationship between afferent arteriolar diameter and perfusion pressure was determined at 80, 120, and 160 mm Hg. Perfusion pressure changes were followed by a 3-min equilibration before steady-state diameter measurements (23).

[3] = test system: Arachidonic acid ω-hydroxylase of mouse kidney microsomes; details: DHT pellets
Procedure: as §1

rat CYP 4A1 = biological target: T2, rat CYP 4A1 (Rattus norvegicus, UniProt P08516); experiment: TST oxidation by rat CYP 4A1
T2 sequence (P08516 1-509): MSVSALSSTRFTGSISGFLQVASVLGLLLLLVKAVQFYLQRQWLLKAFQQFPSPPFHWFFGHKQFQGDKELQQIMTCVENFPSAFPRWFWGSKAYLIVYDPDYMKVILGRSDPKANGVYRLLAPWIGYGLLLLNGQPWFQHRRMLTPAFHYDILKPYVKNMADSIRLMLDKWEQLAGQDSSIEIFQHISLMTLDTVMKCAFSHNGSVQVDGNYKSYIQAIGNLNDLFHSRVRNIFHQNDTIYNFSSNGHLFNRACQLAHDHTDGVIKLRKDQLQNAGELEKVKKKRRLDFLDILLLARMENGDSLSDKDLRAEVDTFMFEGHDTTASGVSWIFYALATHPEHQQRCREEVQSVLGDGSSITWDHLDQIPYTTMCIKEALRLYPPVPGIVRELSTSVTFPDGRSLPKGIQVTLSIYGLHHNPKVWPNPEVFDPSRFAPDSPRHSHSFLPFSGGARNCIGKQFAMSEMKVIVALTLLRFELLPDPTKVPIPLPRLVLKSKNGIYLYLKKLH

rat CYP 4A2 = biological target: T3, rat CYP 4A2 (Rattus norvegicus, UniProt P20816); experiment: TST oxidation by rat CYP 4A2
T3 sequence (P20816 5-504): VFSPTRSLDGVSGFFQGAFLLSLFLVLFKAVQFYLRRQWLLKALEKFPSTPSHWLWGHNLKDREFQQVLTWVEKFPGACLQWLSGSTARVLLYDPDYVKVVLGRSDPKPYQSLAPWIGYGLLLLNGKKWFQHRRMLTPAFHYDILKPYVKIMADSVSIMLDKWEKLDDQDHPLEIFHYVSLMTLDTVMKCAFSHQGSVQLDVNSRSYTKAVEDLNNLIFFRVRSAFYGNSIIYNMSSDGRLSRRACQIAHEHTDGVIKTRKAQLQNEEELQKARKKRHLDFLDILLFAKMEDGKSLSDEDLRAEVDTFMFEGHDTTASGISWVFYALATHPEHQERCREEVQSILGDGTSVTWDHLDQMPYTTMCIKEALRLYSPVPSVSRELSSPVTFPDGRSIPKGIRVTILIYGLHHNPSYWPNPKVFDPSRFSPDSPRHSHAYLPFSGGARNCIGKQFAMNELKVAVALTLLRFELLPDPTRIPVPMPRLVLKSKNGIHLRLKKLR

## O=C(O)CCC/C=C\C/C=C\C/C=C\C/C=C\CCCCCO [20-HETE, 20-hydroxyarachidonic acid]
Renal vasculature
  Renal vasoconstrictor activity: powerful renal vasoconstrictor

## CCCCC/C=C\C/C=C\C/C=C\C/C=C\CCCC(=O)O [AA, arachidonic acid]
Recombinant Cyp 4a14; purified recombinant Cyp 4a14, even with cytochrome b5, excess P450 reductase, GSH, EDTA, and/or sodium cholate
  AA metabolism: did not metabolize AA

## C[C@]12CCC(=O)C[C@@H]1CC[C@@H]1[C@@H]2CC[C@]2(C)[C@@H](O)CC[C@@H]12 [DHT, 5-dihydrotestosterone]
[1]; castrated male Cyp 4a14 (+/+) mice
  concentration at 10 days: 2.64 ± 0.3 ng/mL
[1]; castrated male Cyp 4a14 (−/−) mice
  concentration at 10 days: 2.01 ± 0.1 ng/mL
Cyp 4a12 transcripts
  Cyp 4a12 transcript expression in kidney: abundant and selective expression of 4a 12 transcripts in the renal cortex
[2]; DHT-treated castrated Cyp 4a14 (+/+) mice, n=10
  MABP: 137±4 mm of Hg
[2]; DHT-treated control (noncastrated) Cyp 4a14 (+/+) mice, n=10
  MABP: 140±5 mm of Hg
[2]; DHT-treated female Cyp 4a14 (+/+) mice
  MABP: 132±4 mm of Hg
[2]; DHT-treated female Cyp 4a14 (−/−) mice
  MABP: 133±4 mm of Hg
[2]
  Effect on hypertensive phenotype (blood pressure): restored the hypertensive phenotype
[3]; castrated male (+/+) mice
  (20-HETE) % of total: 82 % of total
  ω-Hydroxylase rate: 228 ± 35 picomoles of product formed per minute per milligram of microsomal protein
[3]; castrated male (−/−) mice
  (20-HETE) % of total: 82 % of total
  ω-Hydroxylase rate: 225 ± 23 picomoles of product formed per minute per milligram of microsomal protein
[3]; female (+/+) mice
  (20-HETE) % of total: 76 % of total
  ω-Hydroxylase rate: 140 ± 3 picomoles of product formed per minute per milligram of microsomal protein
[3]; female (−/−) mice
  (20-HETE) % of total: 77 % of total
  ω-Hydroxylase rate: 164 ± 3 picomoles of product formed per minute per milligram of microsomal protein

## C[C@]12CC[C@H]3[C@@H](CCC4=CC(=O)CC[C@@]43C)[C@@H]1CC[C@@H]2O [TST, testosterone]
[1]; castrated Cyp 4a14 (−/−) mice given TST, n=7
  Plasma TST level: 1.8±0.04 ng TST/ml
Rat CYP 4A1
  TST oxidation: neither recombinant Cyp 4a14 nor rat CYPs 4A1 or 4A2 catalyzed TST oxidation
Rat CYP 4A2
  TST oxidation: neither recombinant Cyp 4a14 nor rat CYPs 4A1 or 4A2 catalyzed TST oxidation
[2]
  Effect on hypertensive phenotype (blood pressure): restored the hypertensive phenotype

## CCCCCCCCCCCC(=O)O [lauric acid]
Recombinant Cyp 4a14; purified recombinant Cyp 4a14
  Lauric acid oxidation rate: 4.0±0.8 nmol product/min/nmol of P450
